The source of these data is ChEMBL document CHEMBL1201862, “PubChem BioAssay data set” (2004).

Assay in all cases: NCI anticancer screen, dose series, 48 h
In test [1] the test system is MDA-MB-435.
Test [2] has as its system HT-29.
The subject of test [3] is ACHN.
In test [4] the test system is LOX IMVI.
Test [5] relates to BT-549.
The test system of test [6] is HOP-62.
Test [7] concerns K562.
In test [8] the test system is 786-0.
Test [9] deals with T47D.
The test system of test [10] is RPMI-8226.
Test [11] has as its system MOLT-4.
Test [12] concerns SK-MEL-28.
Test [13] deals with TK-10.
The test system of test [14] is Malme-3M.
For test [15], the system named is SK-MEL-5.
Test [16] has as its system PC-3.
Test [17] relates to SF-295.
Test [18] has as its system A498.
Test [19] deals with SF-268.
Test [20] deals with OVCAR-5.

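Exposure lasted 48 hours, with cells grown in 96-well plates and compounds tested at five concentrations. Abbreviation: GI50, concentration required for 50% inhibition of growth.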 Active and inactive are the calls of the source. Cut-off read from the data, not from the text of the source: active = GI50 up to about 1.1 µM and inactive = higher.

`CCOC(=O)c1c(C)n(CCN2CCN(C)CC2)c2ccc(OC)cc12`: the GI50 was 19.9 µM (inactive) in test [1]; 24.7 µM (inactive) in test [2]; 65 µM (inactive) in test [3]; 16.6 µM (inactive) in [4]; 45.4 µM (inactive) in test [5]; 32.3 µM (inactive) in test [6]. Also, the GI50 was 20.7 µM (inactive) in test [7]; 38 µM (inactive) in [8]; 34.4 µM (inactive) in test [9]; 20.4 µM (inactive) in test [10]; 22.6 µM (inactive) in test [11]; 16.5 µM (inactive) in [12]. The GI50 in test [13] was 33.3 µM (inactive); in test [14], 21.9 µM (inactive); in [15], 16.5 µM (inactive); in test [16] it was 34 µM (inactive); in [17], 34.8 µM (inactive); in [18], 22.5 µM (inactive). For the same compound, the GI50 in test [19] is 53.7 µM (inactive); in [20] it was 61.4 µM (inactive).

For `C[C@]12CC[C@@H]3c4cc(OCC(F)(F)F)c(O)cc4CC[C@H]3[C@@H]1CC[C@@H]2O`, the GI50 in test [1] is 0.284 µM (active); in test [2], 4.06 µM (inactive); in [3] it was 7.74 µM (inactive); in test [4], 2.94 µM (inactive); in test [5], 18.4 µM (inactive); in test [6], 11.6 µM (inactive). For the same compound, the GI50 in [7] was 0.438 µM (active); in test [8], 3.24 µM (inactive); in test [9], 5.41 µM (inactive); in test [10], 1.17 µM (inactive); in test [11] it was 1 µM (active); in [12], 11.8 µM (inactive). The GI50 is 12 µM (inactive) in [13]; 0.673 µM (active) in test [14]; 3.38 µM (inactive) in test [15]; 2.28 µM (inactive) in test [16]; 1.54 µM (inactive) in test [17]; 7.66 µM (inactive) in test [18]. Further, the GI50 in test [19] is 9.29 µM (inactive); in [20] it was 18.7 µM (inactive).

For `O=C1Cc2c(-c3ccc(Cl)cc3)cc(-c3ccccc3)nc2-c2ccccc2N1`, the GI50 in test [1] is 7.76 µM (inactive); in test [2] it was 4.5 µM (inactive); in test [3] it was 5.09 µM (inactive); in [4] it was 6.56 µM (inactive); in test [5], 21.4 µM (inactive); in test [6] it was 8.24 µM (inactive). For the same compound, the GI50 is 15.1 µM (inactive) in test [7]; 2.03 µM (inactive) in test [8]; 2.66 µM (inactive) in test [9]; 9.25 µM (inactive) in test [10]; 9.53 µM (inactive) in test [11]; 4.67 µM (inactive) in test [12]. The GI50 in test [13] is 6.07 µM (inactive); in [14], 17 µM (inactive); in [15] it was 5.15 µM (inactive); in test [16], 19.4 µM (inactive); in test [17] it was 6.38 µM (inactive); in test [18], 2.07 µM (inactive). The GI50 in test [19] is 12.1 µM (inactive); in test [20], 16.2 µM (inactive).

With `CC(C)(C)OC(=O)NCCNC(=O)CN(CC(=O)O)C1CCCCC1N(CC(=O)O)CC(=O)O` (stereo not given), the GI50 in [1], in [2], in test [3], in test [4], in test [5] and in test [6] was > 100 µM (inactive) each time. Further, the GI50 in test [7], in test [8], in test [9], in test [10], in test [11] and in [12] was > 100 µM (inactive) each time. In addition, the GI50 in test [13], in [14], in test [15], in [16], in test [17] and in test [18] was > 100 µM (inactive) in each case. Besides, the GI50 in test [19] and in test [20] was > 100 µM (inactive) in each case.

Regarding `COc1ccc(NC(=S)N/N=C(\C)c2nc3cccnc3[nH]2)cc1`, the GI50 in test [1] is 6.62 µM (inactive); in test [2], 5.37 µM (inactive); in [3], 4.29 µM (inactive); in [4] it was 3.18 µM (inactive); in test [5] it was 4.57 µM (inactive); in test [6] it was 7.5 µM (inactive). Besides, the GI50 was 3.58 µM (inactive) in test [7]; 4.99 µM (inactive) in [8]; 3.26 µM (inactive) in [9]; 4.35 µM (inactive) in test [10]; 3.41 µM (inactive) in test [11]; 6.46 µM (inactive) in test [12]. Besides, the GI50 in test [13] was 0.637 µM (active); in test [14], 7.59 µM (inactive); in [15] it was 4.33 µM (inactive); in test [16] it was 4.48 µM (inactive); in test [17] it was 3.13 µM (inactive); in test [18] it was 14.3 µM (inactive). The values for the GI50 in test [19] and in [20] were 4.04 µM (inactive) and 6.11 µM (inactive), respectively.

With `CC[S+]([O-])c1c2cc(OC)ccc2nc2ccc(OC)cc12` (stereo not given), the GI50 in [1] was 8.85 µM (inactive); in [2], 4.09 µM (inactive); in test [3], 4.79 µM (inactive); in test [4], 2.58 µM (inactive); in test [5], 17.5 µM (inactive); in test [6] it was 21.5 µM (inactive). The GI50 was 2.42 µM (inactive) in test [7]; 2.56 µM (inactive) in test [8]; 2.62 µM (inactive) in [9]; 3.45 µM (inactive) in test [10]; 4.07 µM (inactive) in [11]; 7.91 µM (inactive) in [12]. Moreover, the GI50 in test [13] is 5.38 µM (inactive); in test [14], 5.12 µM (inactive); in test [15] it was 16.4 µM (inactive); in test [16] it was 10.7 µM (inactive); in test [17], 27.1 µM (inactive); in test [18], 17.3 µM (inactive). Besides, the GI50 in [19] was 14.5 µM (inactive); in [20], 17.8 µM (inactive).

Consider `COc1ccc(OC)c(N2C(=O)/C(=C\c3ccccc3)SC2c2cc(OC)c(OC)c(OC)c2)c1` (stereo not given), for which the GI50 in [1] was 26.5 µM (inactive); in [2], > 87.3 µM (inactive); in test [3], 1.09 µM (active); in [4], > 100 µM (inactive); in test [5], 68.4 µM (inactive); in [6], > 100 µM (inactive). In addition, the GI50 in [7] was 50.9 µM (inactive); in test [8], > 96.6 µM (inactive); in test [9], 12.4 µM (inactive); in test [10] it was 71.4 µM (inactive); in test [11], 52.6 µM (inactive); in test [12] it was > 100 µM (inactive). In addition, the GI50 was > 100 µM (inactive) in [13]; > 100 µM (inactive) in test [14]; > 91.6 µM (inactive) in test [15]; > 89.5 µM (inactive) in [16]; 47.5 µM (inactive) in [17]; 51.5 µM (inactive) in test [18]. For the same compound, the GI50 was > 100 µM (inactive) in test [19] and > 93.3 µM (inactive) in [20].

With `O=C(/C=C1\C[C@H]2C=Nc3ccccc3C(=O)N2C1)NCCCNC(=O)/C=C1\C[C@H]2C=Nc3ccccc3C(=O)N2C1`, the GI50 is 19.1 µM (inactive) in [1]; 16.4 µM (inactive) in test [2]; 14.9 µM (inactive) in [3]; 6.25 µM (inactive) in test [4]; 16.4 µM (inactive) in test [5]; 16.6 µM (inactive) in [6]. Moreover, the GI50 was 5.96 µM (inactive) in test [7]; 3.03 µM (inactive) in test [8]; 16 µM (inactive) in [9]; 10.1 µM (inactive) in test [10]; 2.62 µM (inactive) in test [11]; 18.9 µM (inactive) in test [12]. Besides, the GI50 in [13] is 19.8 µM (inactive); in test [14], 15.9 µM (inactive); in [15], 16.1 µM (inactive); in test [16], 17.6 µM (inactive); in [17] it was 19 µM (inactive); in test [18] it was 17.5 µM (inactive). The values for the GI50 in [19] and in test [20] were 16.7 µM (inactive) and 21.2 µM (inactive), respectively.

Turning to `Cc1ccc(C(=O)/C=C2\Nc3ccccc3SC2=O)c(C)c1`, the GI50 in test [1] is 56.2 µM (inactive); in test [2] it was 45.6 µM (inactive); in test [3], 28.6 µM (inactive); in [4] it was 37.4 µM (inactive); in [5], 6.9 µM (inactive); in test [6], 32.9 µM (inactive). Besides, the GI50 is 41.3 µM (inactive) in [7]; 26.2 µM (inactive) in test [8]; 61.9 µM (inactive) in [9]; 28.5 µM (inactive) in [10]; 37.7 µM (inactive) in test [11]; 51.1 µM (inactive) in test [12]. Besides, the GI50 in test [13] was > 100 µM (inactive); in test [14], 84.3 µM (inactive); in [15] it was 38.5 µM (inactive); in [16], 47.9 µM (inactive); in test [17] it was 46.5 µM (inactive); in [18], > 100 µM (inactive). Besides, the GI50 was 25.1 µM (inactive) in test [19] and > 100 µM (inactive) in test [20].

Take `COc1ccc(-n2c(C)nc3ccc(NC4OC(CO)C(O)C(O)C4O)cc3c2=O)cc1` (stereo not given): the GI50 in test [1], in [2], in [3], in [4], in test [5] and in [6] was > 100 µM (inactive) each time. Besides, the GI50 in test [7], in test [8], in test [9], in test [10], in test [11] and in test [12] was > 100 µM (inactive) each time. Also, the GI50 in [13], in [14], in test [15], in [16], in test [17] and in test [18] was > 100 µM (inactive) throughout. Besides, the GI50 in test [19] and in test [20] was > 100 µM (inactive) in each case.
